The structures appear in SMILES notation.

Sequence of Acetylcholinesterase (P22303 whole entry): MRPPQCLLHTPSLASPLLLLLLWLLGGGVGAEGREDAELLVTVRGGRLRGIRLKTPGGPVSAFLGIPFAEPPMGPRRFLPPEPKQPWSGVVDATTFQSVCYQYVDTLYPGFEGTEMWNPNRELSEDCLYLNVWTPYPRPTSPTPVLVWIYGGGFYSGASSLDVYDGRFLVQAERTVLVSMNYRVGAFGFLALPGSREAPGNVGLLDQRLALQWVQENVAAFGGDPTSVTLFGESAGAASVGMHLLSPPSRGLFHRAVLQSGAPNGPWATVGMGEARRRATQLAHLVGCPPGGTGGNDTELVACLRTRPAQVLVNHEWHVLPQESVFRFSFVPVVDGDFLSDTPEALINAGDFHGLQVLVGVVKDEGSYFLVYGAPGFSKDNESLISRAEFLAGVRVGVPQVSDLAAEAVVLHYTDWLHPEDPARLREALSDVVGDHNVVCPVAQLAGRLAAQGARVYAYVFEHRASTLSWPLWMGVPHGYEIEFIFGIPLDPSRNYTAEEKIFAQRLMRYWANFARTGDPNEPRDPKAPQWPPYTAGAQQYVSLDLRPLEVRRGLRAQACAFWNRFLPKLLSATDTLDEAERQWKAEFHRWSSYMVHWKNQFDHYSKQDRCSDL

The first assay has as its target T1, Endothelin-1 receptor (Homo sapiens, UniProt P25101). Further: in other assays of this panel Not Active means under 50% inhibition at 10 µM.
T1 sequence (P25101 whole entry): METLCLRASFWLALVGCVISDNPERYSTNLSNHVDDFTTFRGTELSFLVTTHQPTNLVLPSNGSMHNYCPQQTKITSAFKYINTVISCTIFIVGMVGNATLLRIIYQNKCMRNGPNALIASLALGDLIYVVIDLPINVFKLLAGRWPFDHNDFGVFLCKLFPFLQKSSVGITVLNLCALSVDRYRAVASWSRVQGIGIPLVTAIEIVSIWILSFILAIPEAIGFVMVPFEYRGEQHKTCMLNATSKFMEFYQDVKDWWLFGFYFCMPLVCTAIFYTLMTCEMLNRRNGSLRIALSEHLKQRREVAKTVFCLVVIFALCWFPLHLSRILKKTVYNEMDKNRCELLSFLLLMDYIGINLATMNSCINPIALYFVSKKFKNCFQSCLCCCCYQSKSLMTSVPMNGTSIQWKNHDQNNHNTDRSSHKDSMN
Type of assay: cell membranes, CHO-K1, Membrane. To be noted: cho-k1.
`CCCCc1nc(Cl)c(CO)n1Cc1ccc(-c2ccccc2-c2nnn[nH]2)cc1` [LOSARTAN]: the IC50 result is reported as “Not Active”.
The same measure, in the same setting: in the case of `COc1cc2nc(N3CCN(C(=O)C4COc5ccccc5O4)CC3)nc(N)c2cc1OC` (stereo not given) [DOXAZOSIN] it was “Not Active”.
Same read-out and setting: in the case of `CCCCN1CCCC[C@H]1C(=O)Nc1c(C)cccc1C` [LEVOBUPIVACAINE] it was “Not Active”.
The same measure, in the same setting: the value for `Cc1onc(O)c1CC(N)C(=O)O` (racemic) [(R,S)-AMPA] was “Not Active”.
As for `CC1CC(OC(=O)C(O)c2ccccc2)CC(C)(C)C1` (stereo not given) [CYCLANDELATE], the IC50 result is given as “Not Active”.

Tested on in a further assay: not listed separately
Description: DRUGMATRIX: Glutamate, Kainate radioligand binding (ligand: [3H] Kainic acid). Type of assay: cell membranes, Rattus norvegicus, Wistar, Brain, Membrane. To be noted: Not Active = under 50% inhibition at 10 µM.
For the molecule `CCCCc1nc(Cl)c(CO)n1Cc1ccc(-c2ccccc2-c2nnn[nH]2)cc1` [LOSARTAN], the IC50 result is “Not Active” and the Ki result was “Not Active”.
`COc1cc2nc(N3CCN(C(=O)C4COc5ccccc5O4)CC3)nc(N)c2cc1OC` (stereo not given) [DOXAZOSIN]: the IC50 result is given as “Not Active” and the Ki result is “Not Active”.
As to `CCCCN1CCCC[C@H]1C(=O)Nc1c(C)cccc1C` [LEVOBUPIVACAINE], the IC50 entry is reported as “Not Active” and the Ki result is recorded as “Not Active”.
Turning to `Cc1onc(O)c1CC(N)C(=O)O` (racemic) [(R,S)-AMPA], the IC50 entry was “Not Active” and the Ki result is given as “Not Active”.
Regarding `CC1CC(OC(=O)C(O)c2ccccc2)CC(C)(C)C1` (stereo not given) [CYCLANDELATE], the IC50 result is “Not Active” and the Ki result was “Not Active”.

Tested on in the next assay: not listed separately
Description: DRUGMATRIX: Glutamate, NMDA, Agonism radioligand binding (ligand: [3H] CGP-39653). It counts as cell membranes, Rattus norvegicus, Wistar, Cerebral cortex, Membrane. The settings on record: Not Active = under 50% inhibition at 10 µM.
With `CCCCc1nc(Cl)c(CO)n1Cc1ccc(-c2ccccc2-c2nnn[nH]2)cc1` [LOSARTAN], the IC50 entry is given as “Not Active” and the Ki result is “Not Active”.
As for `COc1cc2nc(N3CCN(C(=O)C4COc5ccccc5O4)CC3)nc(N)c2cc1OC` (stereo not given) [DOXAZOSIN], the IC50 entry is listed as “Not Active” and the Ki entry is “Not Active”.
Take `CCCCN1CCCC[C@H]1C(=O)Nc1c(C)cccc1C` [LEVOBUPIVACAINE]: the IC50 entry is “Not Active” and the Ki result is “Not Active”.
With `Cc1onc(O)c1CC(N)C(=O)O` (racemic) [(R,S)-AMPA], the IC50 entry is reported as “Not Active” and the Ki entry is reported as “Not Active”.
With `CC1CC(OC(=O)C(O)c2ccccc2)CC(C)(C)C1` (stereo not given) [CYCLANDELATE], the IC50 result is “Not Active” and the Ki result is reported as “Not Active”.

The target in a further assay is T2, 3-hydroxy-3-methylglutaryl-coenzyme A reductase (Homo sapiens, UniProt P04035).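 Further: enzyme inhibition assay of HMG-CoA reductase using radiolabeled [14C]HMG-CoA as substrate; in other assays of this panel Not Active means under 50% inhibition at 10 µM.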
T2 sequence (P04035 whole entry): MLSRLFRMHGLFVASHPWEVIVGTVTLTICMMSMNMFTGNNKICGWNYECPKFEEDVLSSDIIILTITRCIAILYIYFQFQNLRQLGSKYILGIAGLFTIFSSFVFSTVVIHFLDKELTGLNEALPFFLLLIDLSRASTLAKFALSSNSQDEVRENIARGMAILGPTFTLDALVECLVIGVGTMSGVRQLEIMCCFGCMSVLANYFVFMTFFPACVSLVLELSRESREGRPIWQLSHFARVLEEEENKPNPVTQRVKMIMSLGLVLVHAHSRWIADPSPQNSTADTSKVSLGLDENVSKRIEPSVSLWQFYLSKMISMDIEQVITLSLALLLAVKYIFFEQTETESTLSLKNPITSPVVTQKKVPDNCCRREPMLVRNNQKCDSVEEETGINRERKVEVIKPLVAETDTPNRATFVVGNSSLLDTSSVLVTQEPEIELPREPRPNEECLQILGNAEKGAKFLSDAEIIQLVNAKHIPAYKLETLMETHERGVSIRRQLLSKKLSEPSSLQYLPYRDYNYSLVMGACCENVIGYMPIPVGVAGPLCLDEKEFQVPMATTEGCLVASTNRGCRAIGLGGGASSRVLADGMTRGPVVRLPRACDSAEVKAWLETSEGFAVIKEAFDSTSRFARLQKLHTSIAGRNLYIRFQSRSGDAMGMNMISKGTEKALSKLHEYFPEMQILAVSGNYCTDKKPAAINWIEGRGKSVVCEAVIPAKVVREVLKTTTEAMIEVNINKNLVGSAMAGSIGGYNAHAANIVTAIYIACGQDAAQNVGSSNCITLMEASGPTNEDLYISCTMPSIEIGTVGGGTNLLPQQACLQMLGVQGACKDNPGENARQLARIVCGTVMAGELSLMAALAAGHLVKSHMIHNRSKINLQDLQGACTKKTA
On the set-up: species or system Escherichia coli.
Conditions: not given
As to `CCCCc1nc(Cl)c(CO)n1Cc1ccc(-c2ccccc2-c2nnn[nH]2)cc1` [LOSARTAN], the IC50 entry was “Not Active”.
On the same count and under the same terms, the value for `COc1cc2nc(N3CCN(C(=O)C4COc5ccccc5O4)CC3)nc(N)c2cc1OC` (stereo not given) [DOXAZOSIN] was “Not Active”; that for `CCCCN1CCCC[C@H]1C(=O)Nc1c(C)cccc1C` [LEVOBUPIVACAINE] was “Not Active”; that for `Cc1onc(O)c1CC(N)C(=O)O` (racemic) [(R,S)-AMPA] was “Not Active”.
On the same count and under the same terms, the value for `CC1CC(OC(=O)C(O)c2ccccc2)CC(C)(C)C1` (stereo not given) [CYCLANDELATE] was “Not Active”.

Tested on in a further assay: not listed separately
Description: DRUGMATRIX: Interleukin IL-1 radioligand binding (ligand: [125I] interleukin 1beta). To be noted: nih3t3; Not Active = under 50% inhibition at 10 µM. It counts as cell membranes, Membrane.
For the molecule `CCCCc1nc(Cl)c(CO)n1Cc1ccc(-c2ccccc2-c2nnn[nH]2)cc1` [LOSARTAN], the IC50 result was “Not Active” and the Ki entry is on record as “Not Active”.
As for `COc1cc2nc(N3CCN(C(=O)C4COc5ccccc5O4)CC3)nc(N)c2cc1OC` (stereo not given) [DOXAZOSIN], the IC50 entry is given as “Not Active” and the Ki entry was “Not Active”.
For the molecule `CCCCN1CCCC[C@H]1C(=O)Nc1c(C)cccc1C` [LEVOBUPIVACAINE], the IC50 result was “Not Active” and the Ki entry is on record as “Not Active”.
With `Cc1onc(O)c1CC(N)C(=O)O` (racemic) [(R,S)-AMPA], the IC50 result was “Not Active” and the Ki entry was “Not Active”.
For the molecule `CC1CC(OC(=O)C(O)c2ccccc2)CC(C)(C)C1` (stereo not given) [CYCLANDELATE], the IC50 entry was “Not Active” and the Ki entry was “Not Active”.

The target in a further assay is T3, Cysteinyl leukotriene receptor 1 (Homo sapiens, UniProt Q9Y271). Further: in other assays of this panel Not Active means under 50% inhibition at 10 µM.
T3 sequence (Q9Y271 whole entry): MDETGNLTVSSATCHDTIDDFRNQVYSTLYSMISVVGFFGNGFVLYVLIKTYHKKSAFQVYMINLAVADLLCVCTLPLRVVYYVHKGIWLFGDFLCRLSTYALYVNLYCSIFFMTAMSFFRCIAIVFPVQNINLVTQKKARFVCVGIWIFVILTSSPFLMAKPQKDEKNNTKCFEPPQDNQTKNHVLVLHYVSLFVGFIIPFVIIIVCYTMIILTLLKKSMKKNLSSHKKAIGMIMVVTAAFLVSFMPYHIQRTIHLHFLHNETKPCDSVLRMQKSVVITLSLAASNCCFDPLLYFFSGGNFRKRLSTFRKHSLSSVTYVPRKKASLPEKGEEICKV
It counts as cell membranes, CHO-K1, Membrane. To be noted: cho-k1.
On to `CCCCc1nc(Cl)c(CO)n1Cc1ccc(-c2ccccc2-c2nnn[nH]2)cc1` [LOSARTAN], for which the IC50 entry is reported as “Not Active”.
On the same count and under the same terms, in the case of `COc1cc2nc(N3CCN(C(=O)C4COc5ccccc5O4)CC3)nc(N)c2cc1OC` (stereo not given) [DOXAZOSIN] it was “Not Active”; in that of `CCCCN1CCCC[C@H]1C(=O)Nc1c(C)cccc1C` [LEVOBUPIVACAINE], “Not Active”; in that of `Cc1onc(O)c1CC(N)C(=O)O` (racemic) [(R,S)-AMPA], “Not Active”.
The same measure, in the same setting: in the case of `CC1CC(OC(=O)C(O)c2ccccc2)CC(C)(C)C1` (stereo not given) [CYCLANDELATE] it was “Not Active”.

The next assay concerns the target cGMP-specific 3',5'-cyclic phosphodiesterase (Homo sapiens, UniProt O76074). Description: DRUGMATRIX: Phosphodiesterase PDE5 enzyme inhibition (substrate: [3H]cGMP + cGMP). The settings on record: platelet; Not Active = under 50% inhibition at 10 µM. It counts as tissue-based.
Take `CCCCc1nc(Cl)c(CO)n1Cc1ccc(-c2ccccc2-c2nnn[nH]2)cc1` [LOSARTAN]: the IC50 result is given as “Not Active”.
The same measure, in the same setting: in the case of `COc1cc2nc(N3CCN(C(=O)C4COc5ccccc5O4)CC3)nc(N)c2cc1OC` (stereo not given) [DOXAZOSIN] it was “Not Active”; in that of `CCCCN1CCCC[C@H]1C(=O)Nc1c(C)cccc1C` [LEVOBUPIVACAINE], “Not Active”.
On to `Cc1onc(O)c1CC(N)C(=O)O` (racemic) [(R,S)-AMPA], for which the IC50 result was “Not Active”.
As for `CC1CC(OC(=O)C(O)c2ccccc2)CC(C)(C)C1` (stereo not given) [CYCLANDELATE], the IC50 result is recorded as “Not Active”.

A further assay has as its target Acetylcholinesterase (Homo sapiens, UniProt P22303). Description: DRUGMATRIX: Acetylcholinesterase enzyme inhibition (substrate: acetylthiocholine). It counts as cell-based, HEK293. To be noted: hek293; Not Active = under 50% inhibition at 10 µM.
Consider `CCCCc1nc(Cl)c(CO)n1Cc1ccc(-c2ccccc2-c2nnn[nH]2)cc1` [LOSARTAN], for which the IC50 result is given as “Not Active”.
For the molecule `COc1cc2nc(N3CCN(C(=O)C4COc5ccccc5O4)CC3)nc(N)c2cc1OC` (stereo not given) [DOXAZOSIN], the IC50 result is on record as “Not Active”.
Same read-out and setting: in the case of `CCCCN1CCCC[C@H]1C(=O)Nc1c(C)cccc1C` [LEVOBUPIVACAINE] it was “Not Active”.
The same measure, in the same setting: in the case of `Cc1onc(O)c1CC(N)C(=O)O` (racemic) [(R,S)-AMPA] it was “Not Active”; in that of `CC1CC(OC(=O)C(O)c2ccccc2)CC(C)(C)C1` (stereo not given) [CYCLANDELATE], “Not Active”.

The next assay deals with T4, Adenosine receptor A1 (Homo sapiens, UniProt P30542).
T4 sequence (P30542 whole entry): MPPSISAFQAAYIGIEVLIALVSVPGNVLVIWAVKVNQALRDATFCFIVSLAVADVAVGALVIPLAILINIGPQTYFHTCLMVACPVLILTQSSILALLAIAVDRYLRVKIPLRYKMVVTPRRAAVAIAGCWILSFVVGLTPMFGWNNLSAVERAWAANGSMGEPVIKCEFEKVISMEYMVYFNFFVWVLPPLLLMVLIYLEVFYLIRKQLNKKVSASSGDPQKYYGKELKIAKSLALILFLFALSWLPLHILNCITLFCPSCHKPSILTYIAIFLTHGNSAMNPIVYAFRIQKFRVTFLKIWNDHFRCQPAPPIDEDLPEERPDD
It counts as cell membranes, CHO, Membrane. To be noted: cho.
As for `CCCCc1nc(Cl)c(CO)n1Cc1ccc(-c2ccccc2-c2nnn[nH]2)cc1` [LOSARTAN], the IC50 entry is given as “Not Active”.
Same read-out and setting: the value for `COc1cc2nc(N3CCN(C(=O)C4COc5ccccc5O4)CC3)nc(N)c2cc1OC` (stereo not given) [DOXAZOSIN] was “Not Active”; that for `CCCCN1CCCC[C@H]1C(=O)Nc1c(C)cccc1C` [LEVOBUPIVACAINE] was “Not Active”; that for `Cc1onc(O)c1CC(N)C(=O)O` (racemic) [(R,S)-AMPA] was “Not Active”.
The same measure, in the same setting: in the case of `CC1CC(OC(=O)C(O)c2ccccc2)CC(C)(C)C1` (stereo not given) [CYCLANDELATE] it was “Not Active”.

The values are drawn from ChEMBL document CHEMBL1909046, “DrugMatrix in vitro pharmacology data”.
